Reference: ChEMBL document CHEMBL4507289, “Data for DCP probe GSM1” (2021)
Active and inactive are the calls of the source. The rule behind the calls is not given here.

Tests used:
[1] = biological target: Amyloid-beta precursor protein (Homo sapiens, UniProt P05067); assay: Aβ42 inhibition assay
[2] = biological target: Atypical kinase COQ8B, mitochondrial (Homo sapiens) (UniProt Q96D53); details: Compound concentration 1000.0 nM
[3] = biological target: Ankyrin repeat and protein kinase domain-containing protein 1 (Homo sapiens) (UniProt Q8NFD2); details: Compound concentration 1000.0 nM
[4] = biological target: BMP-2-inducible protein kinase (Homo sapiens) (UniProt Q9NSY1); details: Compound concentration 1000.0 nM
[5] = biological target: Bone morphogenetic protein receptor type-1B (Homo sapiens) (UniProt O00238); details: Compound concentration 1000.0 nM
[6] = biological target: Cyclin-dependent kinase 19 (Homo sapiens) (UniProt Q9BWU1); details: Compound concentration 1000.0 nM
[7] = biological target: Cyclin-dependent kinase 4 (Homo sapiens) (UniProt P11802); details: Compound concentration 1000.0 nM
Cyclin-dependent kinase 4 (Homo sapiens), sequence (P11802 whole entry, canonical isoform): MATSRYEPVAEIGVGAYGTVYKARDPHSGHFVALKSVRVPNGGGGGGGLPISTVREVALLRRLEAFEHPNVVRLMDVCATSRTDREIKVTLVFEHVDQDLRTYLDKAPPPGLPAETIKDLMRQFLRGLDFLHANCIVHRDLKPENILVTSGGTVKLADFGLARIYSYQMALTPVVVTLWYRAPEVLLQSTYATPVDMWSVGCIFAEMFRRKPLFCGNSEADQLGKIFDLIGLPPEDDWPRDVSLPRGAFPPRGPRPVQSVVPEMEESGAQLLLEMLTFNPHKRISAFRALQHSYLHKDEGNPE

[8] = biological target: Casein kinase I isoform delta (Homo sapiens) (UniProt P48730); details: Compound concentration 1000.0 nM
[9] = biological target: Death-associated protein kinase 3 (Homo sapiens) (UniProt O43293); details: Compound concentration 1000.0 nM
[10] = biological target: Mitogen-activated protein kinase kinase kinase 12 (Homo sapiens) (UniProt Q12852); details: Compound concentration 1000.0 nM
[11] = biological target: Myotonin-protein kinase (Homo sapiens) (UniProt Q09013); details: Compound concentration 1000.0 nM
Myotonin-protein kinase (Homo sapiens), sequence (Q09013 whole entry): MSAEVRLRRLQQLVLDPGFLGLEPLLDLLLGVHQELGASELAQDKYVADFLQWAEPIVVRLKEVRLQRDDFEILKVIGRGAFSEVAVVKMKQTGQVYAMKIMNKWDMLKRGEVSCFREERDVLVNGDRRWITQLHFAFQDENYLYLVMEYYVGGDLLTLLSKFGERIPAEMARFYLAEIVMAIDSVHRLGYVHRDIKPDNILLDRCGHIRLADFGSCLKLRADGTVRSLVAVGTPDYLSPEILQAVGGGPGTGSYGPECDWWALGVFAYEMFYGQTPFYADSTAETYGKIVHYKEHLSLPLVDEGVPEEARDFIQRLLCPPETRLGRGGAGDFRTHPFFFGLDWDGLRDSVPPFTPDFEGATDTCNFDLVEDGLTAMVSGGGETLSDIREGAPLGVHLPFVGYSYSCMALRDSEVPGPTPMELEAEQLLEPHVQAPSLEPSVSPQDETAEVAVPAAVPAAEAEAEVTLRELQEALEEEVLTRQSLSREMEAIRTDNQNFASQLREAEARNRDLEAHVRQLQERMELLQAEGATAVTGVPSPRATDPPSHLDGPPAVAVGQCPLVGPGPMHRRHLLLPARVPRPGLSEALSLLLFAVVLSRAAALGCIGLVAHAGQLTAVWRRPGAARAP

[12] = biological target: Serine/threonine-protein kinase MRCK gamma (Homo sapiens) (UniProt Q6DT37); details: Compound concentration 1000.0 nM
[13] = biological target: Serine/threonine-protein kinase 17B (Homo sapiens) (UniProt O94768); details: Compound concentration 1000.0 nM
[14] = tested on: Epidermal growth factor receptor (Homo sapiens), P00533 [UNDEFINED MUTATION]; details: Compound concentration 1000.0 nM
[15] = biological target: Ephrin type-B receptor 1 (Homo sapiens) (UniProt P54762); details: Compound concentration 1000.0 nM
Ephrin type-B receptor 1 (Homo sapiens), sequence (P54762 whole entry): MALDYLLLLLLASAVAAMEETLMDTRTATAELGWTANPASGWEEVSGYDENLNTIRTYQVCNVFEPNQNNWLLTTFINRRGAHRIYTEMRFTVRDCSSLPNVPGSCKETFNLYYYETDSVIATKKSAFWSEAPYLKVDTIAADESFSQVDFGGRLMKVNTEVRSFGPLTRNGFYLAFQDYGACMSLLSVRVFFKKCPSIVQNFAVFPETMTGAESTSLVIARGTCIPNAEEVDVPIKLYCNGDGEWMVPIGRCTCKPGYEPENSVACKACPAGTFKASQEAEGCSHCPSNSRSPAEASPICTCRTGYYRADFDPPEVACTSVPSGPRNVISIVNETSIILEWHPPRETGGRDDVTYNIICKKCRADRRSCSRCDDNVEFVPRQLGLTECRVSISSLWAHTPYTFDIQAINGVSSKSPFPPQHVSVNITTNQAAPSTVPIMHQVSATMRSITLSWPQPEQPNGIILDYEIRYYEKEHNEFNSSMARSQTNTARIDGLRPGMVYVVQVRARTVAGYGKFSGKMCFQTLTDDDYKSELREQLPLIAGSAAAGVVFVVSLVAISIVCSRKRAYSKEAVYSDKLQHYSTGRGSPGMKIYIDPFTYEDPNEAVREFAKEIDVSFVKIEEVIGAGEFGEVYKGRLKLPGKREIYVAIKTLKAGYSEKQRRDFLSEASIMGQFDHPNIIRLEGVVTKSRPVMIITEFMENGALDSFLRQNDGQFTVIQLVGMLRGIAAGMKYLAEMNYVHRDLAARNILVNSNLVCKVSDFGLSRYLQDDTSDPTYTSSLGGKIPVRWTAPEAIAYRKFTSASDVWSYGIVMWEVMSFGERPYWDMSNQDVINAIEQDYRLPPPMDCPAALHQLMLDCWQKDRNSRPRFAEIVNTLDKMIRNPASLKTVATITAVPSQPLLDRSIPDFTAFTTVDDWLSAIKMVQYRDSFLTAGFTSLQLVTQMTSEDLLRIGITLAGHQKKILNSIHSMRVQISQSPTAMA

[16] = biological target: Vascular endothelial growth factor receptor 1 (Homo sapiens) (UniProt P17948); details: Compound concentration 1000.0 nM
Vascular endothelial growth factor receptor 1 (Homo sapiens), sequence (P17948 whole entry): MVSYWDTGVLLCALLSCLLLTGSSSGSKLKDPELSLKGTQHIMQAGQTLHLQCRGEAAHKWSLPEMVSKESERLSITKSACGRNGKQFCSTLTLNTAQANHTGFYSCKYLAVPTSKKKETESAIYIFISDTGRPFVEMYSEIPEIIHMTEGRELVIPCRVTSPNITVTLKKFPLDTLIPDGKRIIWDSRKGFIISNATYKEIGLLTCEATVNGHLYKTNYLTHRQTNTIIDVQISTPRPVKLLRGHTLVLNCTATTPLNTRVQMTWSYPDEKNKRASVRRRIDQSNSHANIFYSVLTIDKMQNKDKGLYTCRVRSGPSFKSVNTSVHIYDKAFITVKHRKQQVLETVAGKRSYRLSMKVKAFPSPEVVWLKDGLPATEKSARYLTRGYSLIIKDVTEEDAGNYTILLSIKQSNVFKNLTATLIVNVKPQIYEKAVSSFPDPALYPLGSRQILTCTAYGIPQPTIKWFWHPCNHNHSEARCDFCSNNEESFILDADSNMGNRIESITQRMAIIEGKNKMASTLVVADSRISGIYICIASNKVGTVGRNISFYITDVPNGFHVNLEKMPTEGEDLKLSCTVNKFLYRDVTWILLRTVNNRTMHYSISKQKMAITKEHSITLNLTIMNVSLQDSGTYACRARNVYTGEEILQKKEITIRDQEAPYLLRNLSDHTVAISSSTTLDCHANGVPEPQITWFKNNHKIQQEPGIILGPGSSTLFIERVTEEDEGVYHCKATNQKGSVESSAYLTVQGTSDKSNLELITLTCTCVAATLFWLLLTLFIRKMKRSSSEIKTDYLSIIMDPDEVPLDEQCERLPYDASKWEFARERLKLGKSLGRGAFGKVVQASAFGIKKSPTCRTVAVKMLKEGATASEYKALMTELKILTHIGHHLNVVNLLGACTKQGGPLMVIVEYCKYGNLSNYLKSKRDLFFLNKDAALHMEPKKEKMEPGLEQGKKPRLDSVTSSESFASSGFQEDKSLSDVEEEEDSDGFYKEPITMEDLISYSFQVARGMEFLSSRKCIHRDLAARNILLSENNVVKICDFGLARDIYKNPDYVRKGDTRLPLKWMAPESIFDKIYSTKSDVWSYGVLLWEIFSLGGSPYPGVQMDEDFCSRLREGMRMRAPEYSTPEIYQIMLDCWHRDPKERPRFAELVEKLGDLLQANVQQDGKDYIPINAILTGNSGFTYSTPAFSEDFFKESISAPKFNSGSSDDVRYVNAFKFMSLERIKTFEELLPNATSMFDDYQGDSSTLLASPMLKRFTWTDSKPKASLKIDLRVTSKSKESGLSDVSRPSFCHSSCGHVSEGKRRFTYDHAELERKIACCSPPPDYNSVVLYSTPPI

[17] = tested on: Receptor-type tyrosine-protein kinase FLT3 (Homo sapiens), P36888 [UNDEFINED MUTATION]; details: Compound concentration 1000.0 nM
[18] = biological target: Tyrosine-protein kinase Fyn (Homo sapiens) (UniProt P06241); details: Compound concentration 1000.0 nM
[19] = biological target: G protein-coupled receptor kinase 4 (Homo sapiens) (UniProt P32298); details: Compound concentration 1000.0 nM
[20] = biological target: Hormonally up-regulated neu tumor-associated kinase (Homo sapiens) (UniProt P57058); details: Compound concentration 1000.0 nM
[21] = biological target: Serine/threonine-protein kinase ICK (Homo sapiens) (UniProt Q9UPZ9); details: Compound concentration 1000.0 nM
[22] = biological target: Mitogen-activated protein kinase kinase kinase 13 (Homo sapiens) (UniProt O43283); details: Compound concentration 1000.0 nM
[23] = biological target: Dual specificity mitogen-activated protein kinase kinase 7 (Homo sapiens) (UniProt O14733); details: Compound concentration 1000.0 nM
[24] = biological target: Mitogen-activated protein kinase kinase kinase 9 (Homo sapiens) (UniProt P80192); details: Compound concentration 1000.0 nM
[25] = biological target: Myosin light chain kinase family member 4 (Homo sapiens) (UniProt Q86YV6); details: Compound concentration 1000.0 nM
[26] = biological target: Myosin-IIIa (Homo sapiens) (UniProt Q8NEV4); details: Compound concentration 1000.0 nM
[27] = biological target: Serine/threonine-protein kinase Nek10 (Homo sapiens) (UniProt Q6ZWH5); details: Compound concentration 1000.0 nM
[28] = biological target: Serine/threonine-protein kinase NIM1 (Homo sapiens) (UniProt Q8IY84); details: Compound concentration 1000.0 nM
[29] = biological target: Mitogen-activated protein kinase 11 (Homo sapiens) (UniProt Q15759); details: Compound concentration 1000.0 nM
[30] = biological target: Phosphatidylinositol 4-phosphate 5-kinase type-1 gamma (Homo sapiens) (UniProt O60331); details: Compound concentration 1000.0 nM
[31] = biological target: Serine/threonine-protein kinase D1 (Homo sapiens) (UniProt Q15139); details: Compound concentration 1000.0 nM
[32] = biological target: Rho-associated protein kinase 2 (Homo sapiens) (UniProt O75116); details: Compound concentration 1000.0 nM
[33] = biological target: Serine/threonine-protein kinase SIK2 (Homo sapiens) (UniProt Q9H0K1); details: Compound concentration 1000.0 nM
Serine/threonine-protein kinase SIK2 (Homo sapiens), sequence (Q9H0K1 whole entry, looked up): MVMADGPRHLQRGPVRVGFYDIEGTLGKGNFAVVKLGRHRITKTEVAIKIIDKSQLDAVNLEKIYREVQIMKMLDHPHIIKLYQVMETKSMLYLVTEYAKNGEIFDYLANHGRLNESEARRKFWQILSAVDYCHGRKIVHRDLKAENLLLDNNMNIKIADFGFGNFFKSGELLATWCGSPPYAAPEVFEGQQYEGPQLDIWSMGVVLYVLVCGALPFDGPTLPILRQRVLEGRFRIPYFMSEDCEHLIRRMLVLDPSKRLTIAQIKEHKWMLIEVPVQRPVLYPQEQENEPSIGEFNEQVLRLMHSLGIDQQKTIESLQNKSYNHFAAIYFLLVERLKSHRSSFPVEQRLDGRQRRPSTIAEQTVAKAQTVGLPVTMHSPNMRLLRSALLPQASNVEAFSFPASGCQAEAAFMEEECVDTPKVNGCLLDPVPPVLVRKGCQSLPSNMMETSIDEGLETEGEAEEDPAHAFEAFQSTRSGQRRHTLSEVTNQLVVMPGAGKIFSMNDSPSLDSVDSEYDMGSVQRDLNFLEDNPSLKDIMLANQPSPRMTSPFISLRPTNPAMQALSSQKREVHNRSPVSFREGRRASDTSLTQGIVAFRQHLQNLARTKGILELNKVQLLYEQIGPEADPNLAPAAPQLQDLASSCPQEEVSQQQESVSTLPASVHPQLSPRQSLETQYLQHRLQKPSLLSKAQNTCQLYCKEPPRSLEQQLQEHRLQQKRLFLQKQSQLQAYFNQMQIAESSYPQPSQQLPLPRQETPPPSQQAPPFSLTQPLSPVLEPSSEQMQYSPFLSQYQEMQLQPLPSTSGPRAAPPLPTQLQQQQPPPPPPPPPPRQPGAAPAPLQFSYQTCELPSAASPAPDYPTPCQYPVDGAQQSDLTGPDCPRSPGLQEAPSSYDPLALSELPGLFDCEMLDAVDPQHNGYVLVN

[34] = biological target: Angiopoietin-1 receptor (Homo sapiens) (UniProt Q02763); details: Compound concentration 1000.0 nM
[35] = biological target: Dual specificity protein kinase TTK (Homo sapiens) (UniProt P33981); details: Compound concentration 1000.0 nM
[36] = biological target: Tyrosine-protein kinase TXK (Homo sapiens) (UniProt P42681); details: Compound concentration 1000.0 nM
[37] = biological target: Serine/threonine-protein kinase WNK4 (Homo sapiens) (UniProt Q96J92); details: Compound concentration 1000.0 nM
[38] = biological target: Serine/threonine-protein kinase 25 (Homo sapiens) (UniProt O00506); details: Compound concentration 1000.0 nM
[39] = biological target: Mitogen-activated protein kinase kinase kinase 20 (Homo sapiens) (UniProt Q9NYL2); details: Compound concentration 1000.0 nM
[40] = biological target: 5-hydroxytryptamine receptor 6 (Homo sapiens) (UniProt P50406); details: Compound concentration 10.0 uM
[41] = biological target: Kappa-type opioid receptor (Homo sapiens) (UniProt P41145); details: Compound concentration 10.0 uM
[42] = biological target: Alpha-2B adrenergic receptor (Homo sapiens) (UniProt P18089); details: Compound concentration 10.0 uM
[43] = biological target: Beta-1 adrenergic receptor (Homo sapiens) (UniProt P08588); details: Compound concentration 10.0 uM
[44] = biological target: GABA-A receptor; anion channel (Rattus norvegicus) (UniProt O09028+P15431+P18506+P18508+P19969+P20236+P23574+P23576+P28471+P28473+P30191+P62813+P63079+P63138+Q91ZM7+Q9ES14); details: Compound concentration 10.0 uM

Amyloid-beta precursor protein, sequence (P05067 whole entry): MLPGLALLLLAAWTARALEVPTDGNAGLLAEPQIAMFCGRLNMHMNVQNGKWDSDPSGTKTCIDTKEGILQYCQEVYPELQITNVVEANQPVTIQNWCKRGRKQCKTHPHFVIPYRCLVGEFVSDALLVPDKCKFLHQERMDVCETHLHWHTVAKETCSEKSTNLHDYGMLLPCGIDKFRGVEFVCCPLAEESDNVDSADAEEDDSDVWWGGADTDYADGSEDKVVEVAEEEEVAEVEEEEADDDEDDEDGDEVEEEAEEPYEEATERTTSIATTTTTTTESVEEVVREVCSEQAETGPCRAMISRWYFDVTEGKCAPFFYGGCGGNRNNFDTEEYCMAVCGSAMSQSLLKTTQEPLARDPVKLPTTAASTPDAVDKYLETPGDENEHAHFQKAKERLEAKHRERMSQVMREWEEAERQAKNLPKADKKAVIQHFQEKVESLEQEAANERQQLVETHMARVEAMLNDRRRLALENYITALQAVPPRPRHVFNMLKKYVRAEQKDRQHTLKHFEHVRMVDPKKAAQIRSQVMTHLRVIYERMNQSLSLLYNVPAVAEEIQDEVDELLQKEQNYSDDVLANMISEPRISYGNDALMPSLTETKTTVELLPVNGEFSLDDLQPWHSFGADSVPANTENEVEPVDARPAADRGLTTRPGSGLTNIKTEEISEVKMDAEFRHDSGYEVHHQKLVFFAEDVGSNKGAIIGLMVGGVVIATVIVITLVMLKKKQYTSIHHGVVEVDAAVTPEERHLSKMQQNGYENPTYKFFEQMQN

With `COc1cc(-c2cn([C@H]3CCc4ccccc4N(CC(F)(F)F)C3=O)nn2)ccc1-n1ccc(C)n1` the IC50 [1] was > 10 µM (not active), the residual activity [2] was 100% and the residual activity [3] was 78%. It also gave a residual activity [4] of 100%, a residual activity [5] of 100% and a residual activity [6] of 72%. For the same compound, the residual activity [7] was 90%, the residual activity [8] was 100% and the residual activity [9] was 100%. For the same compound, the residual activity [10] was 100%, the residual activity [11] was 96% and the residual activity [12] was 100%. The residual activity [13] was 100%, the residual activity [14] was 100% and the residual activity [15] was 100%. It also gave a residual activity [16] of 100%, a residual activity [17] of 99% and a residual activity [18] of 94%. For the same compound, the residual activity [19] was 100%, the residual activity [20] was 100% and the residual activity [21] was 63%. The residual activity [22] was 84%, the residual activity [23] was 100% and the residual activity [24] was 91%. For the same compound, the residual activity [25] was 100%, the residual activity [26] was 100% and the residual activity [27] was 81%. For the same compound, the residual activity [28] was 80%, the residual activity [29] was 82% and the residual activity [30] was 100%. The residual activity [31] was 100%, the residual activity [32] was 100% and the residual activity [33] was 100%. The residual activity [34] was 81%, the residual activity [35] was 100% and the residual activity [36] was 84%. For the same compound, the residual activity [37] was 100%, the residual activity [38] was 100% and the residual activity [39] was 85%. The inhibition [40] was -1.39%, the inhibition [41] was 13.6% and the inhibition [42] was 7.14%. For the same compound, the inhibition [43] was 3.7% and the inhibition [44] was 0.92%.

In the case of `COc1cc(-c2cn([C@H]3CCc4c(F)cccc4N(CC(F)(F)F)C3=O)nn2)ccc1-n1cnc(C)c1`, the IC50 [1] is reported as 0.031 µM (active), the residual activity [2] is reported as 77% and the residual activity [3] is reported as 100%. It also gave a residual activity [4] of 100%, a residual activity [5] of 100% and a residual activity [6] of 97%. It also gave a residual activity [7] of 100%, a residual activity [8] of 100% and a residual activity [9] of 100%. For the same compound, the residual activity [10] was 100%, the residual activity [11] was 99% and the residual activity [12] was 100%. It also gave a residual activity [13] of 99%, a residual activity [14] of 98% and a residual activity [15] of 100%. The residual activity [16] was 97%, the residual activity [17] was 100% and the residual activity [18] was 100%. For the same compound, the residual activity [19] was 100%, the residual activity [20] was 100% and the residual activity [21] was 65%. The residual activity [22] was 75%, the residual activity [23] was 100% and the residual activity [24] was 100%. The residual activity [25] was 100%, the residual activity [26] was 100% and the residual activity [27] was 100%. For the same compound, the residual activity [28] was 78%, the residual activity [29] was 90% and the residual activity [30] was 90%. It also gave a residual activity [31] of 100%, a residual activity [32] of 100% and a residual activity [33] of 100%. It also gave a residual activity [34] of 100%, a residual activity [35] of 100% and a residual activity [36] of 100%. For the same compound, the residual activity [37] was 100%, the residual activity [38] was 100% and the residual activity [39] was 100%. It also gave an inhibition [40] of -4.64%, an inhibition [41] of 7.19% and an inhibition [42] of 31.1%. For the same compound, the inhibition [43] was 2.45% and the inhibition [44] was 28.6%.
